The results in this text go back to ChEMBL document CHEMBL1201862, “PubChem BioAssay data set” (2004).

Experiment [1] can be described thus: Luminescence Cell-Based Dose Response HTS to Identify Activators of Luciferase Translation or Activity in H4 […] Cells. [Related pubchem assays: 1829 (Project Summary), 1814 (Primary HTS)]. In kind it is functional.
The subject of experiment [2] is H4. Put plainly: Luminescence Cell-Based Dose Response HTS to Identify Activators of 5'UTR Stem-Loop Driven Prion Protein mRNA Translation in H4 Neuroglioblastoma Cells. [Related pubchem assays: 1829 (Project Summary), 1814 (Primary HTS)]. The experiment is classed as functional. The conditions noted are these: Homo sapiens.
Experiment [3] deals with T1, Heat shock factor protein 1 (Mus musculus, UniProt P38532).
T1 sequence (P38532 whole entry): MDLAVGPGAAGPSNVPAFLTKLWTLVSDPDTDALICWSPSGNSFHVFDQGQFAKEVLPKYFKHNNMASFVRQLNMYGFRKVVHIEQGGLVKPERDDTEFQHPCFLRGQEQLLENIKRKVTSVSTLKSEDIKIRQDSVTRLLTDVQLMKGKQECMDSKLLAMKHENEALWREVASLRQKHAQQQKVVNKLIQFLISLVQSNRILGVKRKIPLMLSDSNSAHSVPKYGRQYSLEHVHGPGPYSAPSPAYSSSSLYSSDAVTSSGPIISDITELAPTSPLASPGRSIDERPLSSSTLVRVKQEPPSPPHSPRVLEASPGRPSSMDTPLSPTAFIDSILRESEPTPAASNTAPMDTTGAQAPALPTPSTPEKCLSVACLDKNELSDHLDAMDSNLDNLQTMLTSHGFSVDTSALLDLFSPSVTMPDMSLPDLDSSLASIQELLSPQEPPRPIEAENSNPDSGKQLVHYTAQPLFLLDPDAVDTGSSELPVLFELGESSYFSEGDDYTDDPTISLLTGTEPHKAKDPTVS
Put plainly: decrease of HSF1-responsive luciferase luminescence – cell-based, NIH3T3, dose retest, confirmation (AID 2382).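 Further: NIH3T3 fibroblasts with HSF1-driven luciferase reporter stressed by proteasome inhibitor MG132; luminescence from HSF1-driven luciferase expression after 8 hours of MG132 stress.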 In kind it is functional.

In experiment [4] the target is Cytochrome P450 3A4 (Homo sapiens, UniProt P08684).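 Further: CYP3A4 tested as one member of a cytochrome P450 panel screen.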
Sequence of Cytochrome P450 3A4 (P08684 whole entry): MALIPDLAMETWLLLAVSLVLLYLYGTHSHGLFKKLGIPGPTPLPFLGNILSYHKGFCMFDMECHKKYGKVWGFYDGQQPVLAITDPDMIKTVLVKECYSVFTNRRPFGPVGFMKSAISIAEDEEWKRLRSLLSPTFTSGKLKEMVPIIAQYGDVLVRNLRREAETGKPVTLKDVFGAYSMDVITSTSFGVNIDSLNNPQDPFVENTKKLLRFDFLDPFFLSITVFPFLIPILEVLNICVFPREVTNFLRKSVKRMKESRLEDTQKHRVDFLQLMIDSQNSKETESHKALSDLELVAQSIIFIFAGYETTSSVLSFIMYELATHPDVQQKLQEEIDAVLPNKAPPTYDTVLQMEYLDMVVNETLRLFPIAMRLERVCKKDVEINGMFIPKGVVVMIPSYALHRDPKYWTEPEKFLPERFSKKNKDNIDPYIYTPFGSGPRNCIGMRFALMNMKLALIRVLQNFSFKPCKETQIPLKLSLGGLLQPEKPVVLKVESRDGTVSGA
Experiment [5] addresses T2, Cytochrome P450 1A2 (Homo sapiens, UniProt P05177).
T2 sequence (P05177 whole entry): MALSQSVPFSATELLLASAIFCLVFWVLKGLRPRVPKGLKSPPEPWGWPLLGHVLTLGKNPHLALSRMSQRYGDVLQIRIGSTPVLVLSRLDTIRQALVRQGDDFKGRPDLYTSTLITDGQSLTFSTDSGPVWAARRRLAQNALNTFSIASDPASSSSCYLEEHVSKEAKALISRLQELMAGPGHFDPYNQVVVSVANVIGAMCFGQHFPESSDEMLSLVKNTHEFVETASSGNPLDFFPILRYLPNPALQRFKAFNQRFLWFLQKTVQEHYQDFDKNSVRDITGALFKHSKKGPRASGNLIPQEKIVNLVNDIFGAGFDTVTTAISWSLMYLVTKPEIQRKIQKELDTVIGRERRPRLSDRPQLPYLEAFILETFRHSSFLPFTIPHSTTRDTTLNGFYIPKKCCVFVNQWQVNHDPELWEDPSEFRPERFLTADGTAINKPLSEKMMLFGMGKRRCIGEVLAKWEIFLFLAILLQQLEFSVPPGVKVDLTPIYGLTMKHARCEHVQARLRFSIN

The target of experiment [6] is Cytochrome P450 2C9 (Homo sapiens, UniProt P11712).
Sequence of Cytochrome P450 2C9 (P11712 whole entry): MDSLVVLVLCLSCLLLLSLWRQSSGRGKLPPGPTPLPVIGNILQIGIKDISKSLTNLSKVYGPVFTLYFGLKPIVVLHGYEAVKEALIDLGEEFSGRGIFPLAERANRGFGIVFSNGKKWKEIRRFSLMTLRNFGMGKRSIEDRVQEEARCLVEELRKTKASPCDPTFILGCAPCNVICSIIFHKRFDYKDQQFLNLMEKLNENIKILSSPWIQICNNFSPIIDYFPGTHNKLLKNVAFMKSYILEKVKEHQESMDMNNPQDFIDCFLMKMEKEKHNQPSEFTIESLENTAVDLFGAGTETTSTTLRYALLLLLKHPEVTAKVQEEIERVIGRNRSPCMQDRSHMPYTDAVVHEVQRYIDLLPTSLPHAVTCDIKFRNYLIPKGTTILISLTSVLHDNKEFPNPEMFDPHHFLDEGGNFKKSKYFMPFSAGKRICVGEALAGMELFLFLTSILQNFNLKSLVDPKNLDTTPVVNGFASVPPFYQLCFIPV
The nature of experiment [7]: Luminescence Cell-Based Dose Response HTS to Identify Inhibitors of 5'UTR Stem-Loop Driven Prion Protein mRNA Translation in H4 Neuroglioblastoma Cells. [Related pubchem assays: 1827 (Project Summary), 1813 (Primary HTS)]. The experiment is classed as functional.
Experiment [8] can be described thus: luciferase reporter signal suppression in cells – H4 neuroglioma cells, luminescence, dose response (AID 1990). The experiment is classed as functional, cell-based. A general note: Reporter assays use an easily measured gene product as a stand-in for the process of interest.
Experiment [9] can be described thus: alpha-synuclein stem-loop luciferase translation blockers – H4 neuroglioma cells, luminescence, confirmation (AID 1988). The experiment is classed as functional, cell-based.
Experiment [10] deals with Streptococcus sp. 'group A'. The experiment can be described thus: Streptococcus pyogenes SK(-)GAS viability under kanamycin – luminescence, BacTiterGlo, confirmation, counter-screen for streptokinase expression inhibitor project, dose response (AID 1900). The experiment is classed as functional, organism-based. For orientation: The purpose of a counterscreen is to sort out artefacts and off-target activity.

Experiment [11] in a line: Luminescence Cell-Based Dose Retest to Confirm Inhibitors of Cancer Stem Cells. [Related pubchem assays (depositor defined):AID2717, AID2721]. The experiment is classed as functional. Conditions: Homo sapiens.
In experiment [12] the test system is Streptococcus. The experiment can be described thus: GAS UMAA2166 growth inhibition – luminescence, BacTiterGlo, counter-screen for streptokinase expression inhibitor project, dose response (AID 1915).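 Further: potency for reduction of bacterial viability or growth.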 In kind it is functional, organism-based.
The target in experiment [13] is T3, Streptokinase A (Streptococcus pyogenes serotype M1, UniProt P10520).
T3 sequence (P10520 whole entry): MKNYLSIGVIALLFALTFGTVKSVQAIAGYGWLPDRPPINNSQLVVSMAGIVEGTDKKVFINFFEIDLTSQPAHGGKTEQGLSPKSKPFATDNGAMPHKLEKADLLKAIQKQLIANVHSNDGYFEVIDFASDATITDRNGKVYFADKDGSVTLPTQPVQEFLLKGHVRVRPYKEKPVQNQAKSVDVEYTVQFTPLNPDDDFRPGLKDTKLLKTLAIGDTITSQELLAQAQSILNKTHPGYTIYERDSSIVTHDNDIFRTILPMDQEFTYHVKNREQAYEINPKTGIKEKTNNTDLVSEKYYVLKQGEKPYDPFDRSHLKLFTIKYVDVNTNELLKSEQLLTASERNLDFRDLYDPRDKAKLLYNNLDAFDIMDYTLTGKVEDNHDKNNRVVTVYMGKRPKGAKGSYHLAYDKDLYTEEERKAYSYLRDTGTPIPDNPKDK
The experiment can be described thus: viability-normalized secreted streptokinase activity reduction – plasminogen activation absorbance, OD405, dose response (AID 1914).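 Further: secreted streptokinase activity via plasminogen activation per viability signal from cell pellet.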 The experiment is classed as functional, Streptococcus pyogenes M1 GAS.

Experiment [14] in a line: fluconazole-exposed Candida albicans growth modulators – fluorescence, retest, confirmation (AID 2467). In kind it is functional, cell-based.
Experiment [15] in a line: NIH-3T3 fibroblast cytotoxicity, dose response, cytotoxicity control, cell-based, fluorescence, Alamar Blue, secondary assay (AID 2327).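 Further: NIH-3T3 mouse fibroblasts cultured with fluconazole at 8 µg/mL.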 The experiment is classed as functional.
The target in experiment [16] is Cytochrome P450 2C19 (Homo sapiens, UniProt P33261). The experiment can be described thus: Cytochrome panel assay with activity outcomes. Panel member name: p450-cyp2c19 Compounds with AC50 equal or less than 10 uM are considered active. The experiment is classed as functional. The conditions noted are these: read-out: AC50.
Sequence of Cytochrome P450 2C19 (P33261 whole entry): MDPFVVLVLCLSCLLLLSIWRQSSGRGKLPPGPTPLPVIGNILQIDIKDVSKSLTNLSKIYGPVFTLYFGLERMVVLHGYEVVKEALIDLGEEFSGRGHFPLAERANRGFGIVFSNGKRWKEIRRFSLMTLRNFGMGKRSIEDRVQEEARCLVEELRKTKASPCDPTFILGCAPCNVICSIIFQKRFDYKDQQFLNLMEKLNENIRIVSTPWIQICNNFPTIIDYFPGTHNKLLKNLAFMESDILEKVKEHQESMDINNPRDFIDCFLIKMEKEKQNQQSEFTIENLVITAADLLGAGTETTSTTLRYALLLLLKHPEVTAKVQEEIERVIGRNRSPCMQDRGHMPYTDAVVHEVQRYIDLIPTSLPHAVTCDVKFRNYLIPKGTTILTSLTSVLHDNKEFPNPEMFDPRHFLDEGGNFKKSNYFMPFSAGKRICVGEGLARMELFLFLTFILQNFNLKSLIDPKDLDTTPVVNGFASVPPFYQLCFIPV

The source made the active and inactive calls.

For orientation: EC50 means the concentration that produces a half-maximal response. With `O=C(COc1cccc2cccnc12)Nc1ccccc1`, the figures for the EC50 in [1] and in experiment [2] were 15.4 µM (active) and 15 µM (active), respectively.
One may read the AC50 as the concentration giving half of the maximal activity seen. Consider `Cc1cc(NC(=O)C2C3C(=O)N(Cc4ccc(Cl)cc4)C(C(=O)NC(C)(C)C)C34C=CC2(C)O4)no1` (stereo not drawn), for which the EC50 in experiment [3] is > 195 µM (not active). Further, in experiment [4], the AC50 was 25.1 µM (inconclusive).
Consider `COCCn1c(=O)c(-c2ccc(F)c(F)c2)nc2cncnc21`, for which the half-maximal activity concentration (AC50) in experiment [4] was 12.6 µM (inconclusive).
The same measure, in the same setting: then `CCOCC(=O)Nc1c(C(=O)Nc2ccccc2OC)oc2ccccc12`, with 6.31 µM (inconclusive).
For `COc1ccc(-n2c(=O)c(-c3ccccc3)nc3cnc(N4CCOCC4)nc32)cc1`, the half-maximal activity concentration (AC50) in experiment [5] was 15.8 µM (inconclusive).
Regarding `Nc1ccc(S(=O)(=O)c2ccc(NC(=O)c3cccnc3)cc2)cc1`, the values for the AC50 in experiment [4] and in [6] were 3.16 µM (inconclusive) and 6.31 µM (inconclusive), respectively.
Regarding `Cc1c(NC(=O)/C(C#N)=C/c2ccc(-c3ccccc3Cl)o2)c(=O)n(-c2ccccc2)n1C`, the EC50 is > 120 µM (not active) in experiment [7], 13.4 µM (active) in experiment [8] and > 120 µM (not active) in [9].
Turning to `COC(=O)c1nn(-c2cccc(C(F)(F)F)c2)c(=O)cc1Sc1ccccn1`, the EC50 in experiment [3] was > 195 µM (not active). Moreover, the half-maximal activity concentration (AC50) in [4] was 20 µM (inconclusive); in [6], 3.98 µM (inconclusive).
Turning to `Oc1ccc(CNCc2ccccc2)c2cccnc12`, the AC50 in experiment [5] is 5.01 µM (inconclusive).
Take `Cc1ccccc1-c1cc(C(=O)Nc2nc3c(s2)CCCC3)c2ccccc2n1`: in experiment [5], the AC50 was 3.55 µM (inconclusive).
With `COc1cccc(Cn2c(=O)c(-c3cccc(C#N)c3)nc3cnc(Nc4ccccc4)nc32)c1`, the AC50 in experiment [4] was 0.794 µM (inconclusive).
Take `CCN(CC)S(=O)(=O)c1cccc(-c2nnc(S)n2/N=C/c2ccc(OC)cc2)c1`: the EC50 in experiment [7] is > 120 µM (not active); in [8] it was 23.8 µM (active); in experiment [9], 34.8 µM (active).
With `c1cn2c(NC3CCCCC3)c(-c3ccc(SC4CCCCC4)cc3)nc2cn1`, the EC50 in [10] is 1.01 µM (active); in [12], 4.27 µM (active); in [13] it was > 150 µM (not active). Moreover, the AC50 in experiment [11] was 3.13 µM (active).
In the case of `O=c1c(-c2ccc(Cl)cc2)nc2cnc(Nc3ccccc3)nc2n1C[C@H]1CCCO1`, the AC50 in experiment [5] was 12.6 µM (inconclusive).
For the compound `COc1cccc(Nc2ncc3nc(-c4cc(F)cc(F)c4)c(=O)n(C4CC4)c3n2)c1`, the AC50 in [5] is 6.31 µM (inconclusive).
Still for that read-out and setting: then `CCOC(=O)c1ncn2c1[C@H]1CCCN1C(=O)c1cc(OC)ccc1-2`, with 39.8 µM (inconclusive).
Regarding `CC1CCC(C(=O)c2c(O)oc3ccccc3c2=O)CC1` (stereo not drawn), the EC50 in [14] is 2.01 µM (active); in [15], > 150 µM (inactive); in experiment [10] it was 10.4 µM (active); in experiment [12] it was 20.3 µM (active); in experiment [13], > 150 µM (not active).
Consider `O=C(N/N=C/c1cc([N+](=O)[O-])ccc1O)C(O)(c1ccccc1)c1ccccc1`, for which the 50% effective concentration (EC50) in experiment [14] is 2.29 µM (active); in [15] it was > 150 µM (inactive); in [10] it was 3.11 µM (active); in experiment [12], 9.11 µM (active); in experiment [13], > 150 µM (not active).
Take `O=c1c2c(n3cnnc3n1C1CCCCC1)-c1ccccc1CC21CCCCC1`: the EC50 in experiment [7], in experiment [8] and in [9] was > 120 µM (not active) throughout.
Consider `COc1ccc(NS(=O)(=O)c2cccc(N3CC(=O)C(c4ccccc4)=C3N)c2)cc1`, for which the EC50 in [7], in experiment [8] and in experiment [9] was > 120 µM (not active) throughout.
For the compound `CCOc1ccc(-c2nc(S(=O)(=O)c3ccccc3)c(NCc3cccnc3)o2)cc1`, the EC50 in [7], in [8] and in experiment [9] was > 120 µM (not active) each time.
Take `Cc1ccc(NC(=O)c2nc[nH]c2C(=O)N[C@@H](C)c2ccccc2)cc1`: the EC50 in [7] is > 120 µM (not active); in experiment [10], 1.05 µM (active); in experiment [8], 17.3 µM (active); in [9], > 120 µM (not active); in experiment [12], 16.9 µM (active); in [13], > 150 µM (not active).
In the case of `CCCN(CCC)[C@@H]1CCc2c(OC)cccc2[C@@H]1C`, in experiment [5], the AC50 is 31.6 µM (inconclusive).
`COC(=O)[C@@]1(Cc2ccc(OC)cc2)[C@H]2c3cc(C(=O)N(C)C)n(CCN4CNCC4=O)c3C[C@H]2CN1C(=O)c1ccccc1`: the results for the half-maximal activity concentration (AC50) in experiment [16] and in experiment [5] were 15.8 µM (inconclusive) and 20 µM (inconclusive), respectively.
In the case of `C/C(CCN1CCCc2nc(C)c(C)cc21)=N\O[C@@H](C)c1cc(-c2c(C)cc(C)cc2C)no1`, the AC50 in experiment [4] was 5.01 µM (inconclusive).
In the case of `c1ccc2c3c([nH]c2c1)[C@@H]1[C@H]2CC[C@H]([C@H]4CCCN[C@H]42)N1CC3`, the half-maximal activity concentration (AC50) in experiment [5] was 15.8 µM (inconclusive).
As for `CC1(C)CC(=O)C(CCCN2C(=O)c3ccccc3C2=O)C(=O)C1`, the figures for the AC50 in experiment [16] and in experiment [5] were 39.8 µM (inconclusive) and 28.2 µM (inconclusive), respectively.
As to `CCC(CC)C(=O)Nc1cccc(/C(C)=N\NC(=O)c2ccc(C)s2)c1`, the half-maximal activity concentration (AC50) in experiment [6] was 0.355 µM (inconclusive); in experiment [5], 3.16 µM (inconclusive).
Take `NS(=O)(=O)c1ccc(NC2(C(=O)O)CCCC2)cc1`: the half-maximal activity concentration (AC50) in experiment [5] is 0.794 µM (inconclusive).
Take `C=CCn1c2ccccc2c2nnc(S)nc21`: the EC50 in experiment [7] is > 120 µM (not active); in [8] it was 17.8 µM (active); in [9] it was > 120 µM (not active).
Turning to `CN1CCN(CCc2ccc(Cl)c(Cl)c2)CC1`, the AC50 in [5] was 25.1 µM (inconclusive).
Consider `CNS(=O)(=O)c1ccc(NC(=O)c2cnn3c(C(F)F)cc(-c4ccccc4)nc23)cc1`, for which the EC50 is 31.8 µM (active) in [7]; 85.3 µM (active) in experiment [10]; > 120 µM (not active) in experiment [8]; 12.1 µM (active) in experiment [9]; > 150 µM (not active) in experiment [12]; > 150 µM (not active) in experiment [13].
